# US20230097157A1, “Bicyclic Pyridin-2-one and pyrimidin-4-one Derivatives Useful As a Factor XIa Inhibitors” (Janssen Pharmaceutica NV, priority 2021, published 2023)
# Like-named read-outs stand apart in the source and are kept apart here.
# Experiments:
# Factor XIa = Factor XIa (Homo sapiens, UniProt P03951); assay: Factor XIa inhibition assay (FLINT) utilizing a fluorophore-quencher pair peptide substrate 5Fam-[…]-K5Tamra; type: biochemical; details: kinetic (KIN) reads, read-out: FXIa KIN Inh IC50
# Summary of the method: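 Compounds were tested as 11-point 3-fold dilutions from 100 nM (2% DMSO). They were preincubated 30 min with FXIa in 50 mM Tris pH 7.5, 5 mM CaCl2, then 15 μM fluorophore-quencher peptide was added. Cleavage was followed at 485/520 nm over 30 min, and IC50 was derived by 4-parameter logistic fit.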
# human plasma kallikrein = human plasma kallikrein (Homo sapiens, UniProt P03952); assay: Kallikrein inhibition assay (FLINT) utilizing a quenched AMC peptide substrate Z-Gly-Pro-Arg-AMC; type: biochemical; details: kinetic (KIN) reads, read-out: Kallikrein KIN Inh IC50
# Summary of the method: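 IC50 from a 4-parameter logistic fit of % inhibition from 11 concentrations (3-fold, top 1 μM, 2% DMSO). Compound pre-incubated 30 min with 2 nM enzyme in Tris pH 7.5, NaCl, CaCl2, BSA, CHAPS, then 50 μM AMC peptide substrate added. Fluorescence (340/440 nm) followed every 5 min for 30 min at room temperature.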
# human plasma kallikrein, sequence (P03952 391-638 limits assumed): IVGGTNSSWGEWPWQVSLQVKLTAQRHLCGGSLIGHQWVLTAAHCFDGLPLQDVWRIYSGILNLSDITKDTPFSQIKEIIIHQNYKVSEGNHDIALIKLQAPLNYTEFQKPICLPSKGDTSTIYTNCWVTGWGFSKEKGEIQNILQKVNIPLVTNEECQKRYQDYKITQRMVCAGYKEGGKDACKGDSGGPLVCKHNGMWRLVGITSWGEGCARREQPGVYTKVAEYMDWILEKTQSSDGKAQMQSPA
# human plasma kallikrein, sequence (P03952 20-390 partner limits assumed): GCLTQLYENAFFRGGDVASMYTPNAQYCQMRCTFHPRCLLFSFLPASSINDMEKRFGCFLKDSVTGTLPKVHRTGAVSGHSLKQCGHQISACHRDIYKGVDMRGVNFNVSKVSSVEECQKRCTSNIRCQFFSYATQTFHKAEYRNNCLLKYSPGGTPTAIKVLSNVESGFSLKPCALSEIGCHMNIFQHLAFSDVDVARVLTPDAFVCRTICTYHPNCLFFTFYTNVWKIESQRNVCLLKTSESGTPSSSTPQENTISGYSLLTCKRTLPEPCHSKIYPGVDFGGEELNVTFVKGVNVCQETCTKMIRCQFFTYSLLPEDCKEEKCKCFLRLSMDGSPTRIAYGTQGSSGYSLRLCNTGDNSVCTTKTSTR
# Factor XIa, sequence (P03951 388-625 limits assumed): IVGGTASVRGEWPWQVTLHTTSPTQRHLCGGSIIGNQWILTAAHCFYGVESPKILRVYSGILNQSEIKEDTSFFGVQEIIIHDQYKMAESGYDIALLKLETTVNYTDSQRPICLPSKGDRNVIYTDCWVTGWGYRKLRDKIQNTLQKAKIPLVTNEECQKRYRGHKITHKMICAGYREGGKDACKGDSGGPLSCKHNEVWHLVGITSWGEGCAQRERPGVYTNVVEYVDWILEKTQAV
# Factor XIa, sequence (P03951 19-387 partner limits assumed): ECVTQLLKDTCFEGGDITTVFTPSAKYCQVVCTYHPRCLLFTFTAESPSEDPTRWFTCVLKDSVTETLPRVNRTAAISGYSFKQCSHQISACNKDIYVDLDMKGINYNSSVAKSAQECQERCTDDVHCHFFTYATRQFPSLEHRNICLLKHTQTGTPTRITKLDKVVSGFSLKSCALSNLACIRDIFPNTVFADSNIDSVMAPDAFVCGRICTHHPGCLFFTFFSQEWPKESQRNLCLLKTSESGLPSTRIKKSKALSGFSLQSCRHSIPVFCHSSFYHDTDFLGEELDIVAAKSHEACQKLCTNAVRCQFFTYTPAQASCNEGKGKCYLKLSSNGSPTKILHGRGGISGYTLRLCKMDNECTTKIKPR
IC50 (Factor XIa; values in nM) [nM],IC50 (human plasma kallikrein; values in nM) [nM],IC50 (human plasma kallikrein; unit μM) [nM],IC50 (Factor XIa; unit μM) [nM],SMILES
17,72.8,,,"CC(O)c1nccc(-c2cnc([C@H]3CC4(CC4)c4cc(-c5c(-n6cnnn6)ccc(Cl)c5F)cc(=O)n43)[nH]2)c1F (single isomer, unassigned) [Example 6, (3′R)-7′-(3-Chloro-2-fluoro-6-(1H-tetrazol-1-yl)phenyl)-3′-(5-(3-fluoro-2-(1-hydroxyethyl)pyridin-4-yl)-1H-imidazol-2-yl)-2′,3′-dihydro-5′H-spiro[cyclopropane-1,1′-indolizin]-5′-one]"
675,,4800,,"C[C@H]1C[C@H](c2ncc(-c3ccc(NC(=O)C4CC4)nc3)[nH]2)n2c1nc(-c1c(-n3cnnn3)ccc(Cl)c1F)cc2=O (stereo in doubt) [Example 121, N-(5-(2-((6*R,8*S)-2-(3-Chloro-2-fluoro-6-(1H-tetrazol-1-yl)phenyl)-8-methyl-4-oxo-4,6,7,8-tetrahydropyrrolo[1,2-a]pyrimidin-6-yl)-1H-imidazol-5-yl)pyridin-2-yl)cyclopropanecarboxamide]"
,,> 10000,6400,"COc1cc(-c2cnc([C@@H]3C[C@H](C)c4nc(-c5c(-n6cnnn6)ccc(Cl)c5F)cc(=O)n43)[nH]2)ccn1 (stereo in doubt) [Example 97, (6*S,8*S)-2-(3-Chloro-2-fluoro-6-(1H-tetrazol-1-yl)phenyl)-6-(5-(2-methoxypyridin-4-yl)-1H-imidazol-2-yl)-8-methyl-7,8-dihydropyrrolo[1,2-a]pyrimidin-4(6H)-one]"
,,> 10000,> 10000,"C[C@H]1C[C@@H](c2ncc(-c3cnc(N)c(F)c3)[nH]2)n2c1cc(-c1c(-n3cnnn3)ccc(Cl)c1F)cc2=O (relative stereo) [Example 61, (1*S,3*S)-3-(5-(6-Amino-5-fluoropyridin-3-yl)-1H-imidazol-2-yl)-7-(3-chloro-2-fluoro-6-(1H-tetrazol-1-yl)phenyl)-1-methyl-2,3-dihydroindolizin-5(1H)-one]"
8.3,15.6,,,"C[C@H]1C[C@@H](c2ncc(-c3cc4c(cn3)NC(=O)CC4)[nH]2)n2c1cc(-c1c(-n3cnnn3)ccc(Cl)c1F)cc2=O (single isomer, unassigned) [Example 92, 6-(2-((1S*,3S*)-7-(3-Chloro-2-fluoro-6-(1H-tetrazol-1-yl)phenyl)-1-methyl-5-oxo-1,2,3,5-tetrahydroindolizin-3-yl)-1H-imidazol-5-yl)-3,4-dihydro-1,7-naphthyridin-2(1H)-one]"
> 100,,> 1000,,"Nc1ccc(-c2cnc([C@@H]3CC4(CC4)c4cc(-c5cc(Cl)ccc5-n5cnnn5)cc(=O)n43)[nH]2)c(F)n1 (single isomer, unassigned) [Example 4]"
12.7,36.9,,,"CNC(=O)c1cc(-c2cnc([C@@H]3C[C@H](C)c4cc(-c5c(-n6cnnn6)ccc(Cl)c5F)cc(=O)n43)[nH]2)ccn1 [Example 13, 4-(2-((1S,3S)-7-(3-Chloro-2-fluoro-6-(1H-tetrazol-1-yl)phenyl)-1-methyl-5-oxo-1,2,3,5-tetrahydroindolizin-3-yl)-1H-imidazol-5-yl)-N-methylpicolinamide]"
1.2,26.8,,,"COC(=O)Nc1ccc(-c2cnc([C@@H]3C[C@H](C)c4nc(-c5c(-n6cnnn6)ccc(Cl)c5F)cc(=O)n43)[nH]2)cn1 (stereo in doubt) [Example 116, Methyl (5-(2-((6*S,8*S)-2-(3-Chloro-2-fluoro-6-(1H-tetrazol-1-yl)phenyl)-8-methyl-4-oxo-4,6,7,8-tetrahydropyrrolo[1,2-a]pyrimidin-6-yl)-1H-imidazol-5-yl)pyridin-2-yl)carbamate]"
0.4,3.1,,,"C[C@@H]1C[C@@H](c2ncc(-c3ccc(N)nc3Cl)[nH]2)n2c1cc(-c1c(-n3cnnn3)ccc(Cl)c1F)cc2=O [Example 58, (1R,3S)-3-(5-(6-Amino-2-chloropyridin-3-yl)-1H-imidazol-2-yl)-7-(3-chloro-2-fluoro-6-(1H-tetrazol-1-yl)phenyl)-1-methyl-2,3-dihydroindolizin-5(1H)-one]"
